# Results as given in paper PMC7583830 (Molecules, 2020).
# Values joined by “and” are separate entries in the source; they are usually repeats but may differ in a detail not shown here. Equal values may be shown once. Where a SMILES comes first, the peptide text is derived from it. [ ]: non-standard residue; d: D form. The star is where a group is joined. DOTA = O=C(O)CN1CCN(CC(=O)O)CCN(CC(=O)*)CCN(CC(=O)O)CC1; 1Nal = N[C@@H](Cc1cccc2ccccc12)C(=O)O; NMeNle = CCCC[C@H](NC)C(=O)O
# Assay: Metabolic stability in vivo and radiometabolites (radio-HPLC of blood, urine, liver, kidney)
# Set-up: species or system BALB/c mice
# Description: Metabolic biodistribution studies were performed in accordance with the ethical standards of the institution and approved by the Austrian Ministry of Science (BMWFW-66.011/0072-V/3b/2019). These studies were carried out in 5- to 7-week-old female BALB/c mice (n = 3) injected with [^177Lu]Lu-1 via a lateral tail vein. To allow monitoring of the metabolites by radio-HPLC, mice were injected with 30 MBq corresponding to 0.8 nmol total peptide. The mice were euthanized by cervical dislocation after different time points of 10 min, 30 min and 1 h p.i. and the urine and a venous blood sample were collected at the time of sacrifice. Liver and kidneys were dissected and homogenized in 20 mM HEPES buffer pH 7.3 at a ratio of 1:1 (v/v) with an Ultra-Turrax T8 homogenizer (IKA-Werke, Staufen, Germany) for 1 min at RT. Before radio-HPLC analysis, the samples (except urine) were treated with ACN at a ratio of 1:1 (v/v) to precipitate proteins, centrifuged at 2000× g for 2 min and diluted with water at a ratio of 1:1 (v/v). For HPLC analysis of the samples, the analytical HPLC system described above with a flow rate of 1 mL/min was used together with the following optimized water/ACN/0.1% TFA gradient to allow a better separation of [^177Lu]Lu-1 and the different radiometabolites: 0–7 min 1–7% ACN, 7–8 min 7–10% ACN, 8–18 min 10–18% ACN, 18–20 min 18–32% ACN, 20–27 min 32% ACN, 27–37 min […], 37–40 min 80% ACN, 40–40.1 min 80–1% ACN, 40.1–45 min 1% ACN. Urine was measured with the low-sensitivity loop of the radiodetector. The remaining samples were analyzed with the high-sensitivity loop due to the lower radioactivity present in blood, liver and kidney homogenate. To quantify the percentage of intact [^177Lu]Lu-1 and [^177Lu]Lu-M1 showing some overlap in the radiochromatogram when using the high-sensitivity loop of the radiodetector, the two radiopeptides were co-injected at different known ratios to enable a more accurate separation and integration of the two peaks (see supporting Figure S4). Mice from the metabolic biodistribution studies were subjected to a further dissection of all remaining tissues (blood, lung, heart, femur, spleen, muscle, intestine, pancreas and stomach). All organs, also including liver and kidneys, were weighed, and their radioactivity was measured in the gamma counter together with a standard and the residual body. To quantify the uptake of radioactivity in liver and kidneys, a part of liver and kidney homogenate was measured in the gamma counter to extrapolate the radioactivity for the whole organ.
compound,measurement,setting,value
"CCCC[C@@H](C(=O)N[C@@H](CC(=O)O)C(=O)N[C@@H](Cc1cccc2ccccc12)C(N)=O)N(C)C(=O)[C@H](Cc1c[nH]c2ccccc12)NC(=O)CNC(=O)[C@H](Cc1ccc(O)cc1)NC(=O)[C@@H]1CCCN1C(=O)[C@@H](CCC(=O)O)NC(=O)CN1CCN(CC(=O)O)CCN(CC(=O)O)CCN(CC(=O)O)CC1 [[^177Lu]Lu-1, metal not drawn] ({DOTA}-[dE]PYGW[NMeNle]D[1Nal]-NH2)",total amount of radiometabolites,"blood, 10 min p.i.",19.5%
same,total amount of radiometabolites,"blood, 30 min p.i.",35.9%
same,percentage of intact radiopeptide / radiometabolite,"blood, 30 min p.i., mice injected i.v. with [177Lu]Lu-1",64.1%
same,total amount of radiometabolites,"blood, 60 min p.i.",43.1%
same,percentage of intact radiopeptide / radiometabolite,"blood, 60 min p.i., mice injected i.v. with [177Lu]Lu-1",56.9%
same,percentage of intact radiopeptide / radiometabolite,"kidney homogenate soluble phase, 10 min p.i.",29.7%
same,percentage of intact radiopeptide / radiometabolite,"kidney, 30 min p.i.",18.0%
same,percentage of intact radiopeptide / radiometabolite,"kidney, 60 min p.i.",7.0%
same,intact radiopeptide,"kidneys and urine, studied time points",< 30%
same,percentage of intact radiopeptide / radiometabolite,"liver homogenate soluble phase, 10 min p.i.",71.9%
same,percentage of intact radiopeptide / radiometabolite,"liver, 30 min p.i.",53.9%
same,percentage of intact radiopeptide / radiometabolite,"liver, 60 min p.i.",47.7%
same,percentage of intact radiopeptide / radiometabolite,"urine, 10 min p.i.",29.1% and 29%
same,percentage of intact radiopeptide / radiometabolite,"urine, 30 min p.i.",19.4%
same,percentage of intact radiopeptide / radiometabolite,"urine, 60 min p.i.",18%
